In patent publication US8586612B2, “Piperidinesulfonylureas and -thioureas, their preparation, their use and pharmaceutical compositions comprising them” (Sanofi-Aventis Deutschland GmbH, priority 2004, dated 2013):

What was measured:
guinea pig heart = experiment: Effect on coronary flow under hypoxic conditions in the isolated perfused Langendorff guinea pig heart; settings: 1 μM in perfusate, added 10 minutes before hypoxia; averages of 3 hearts
Excerpt: 3) Effect on Coronary Flow Under Hypoxic Conditions in the Guinea Pig Heart
It is known that an oxygen deficiency in coronary vessels leads to a reflectory dilatation of the vessels in order to compensate the oxygen deficiency. The vascular KATP channel (SUR2B/Kir6.2) plays an important part in this. Its opening leads to hyperpolarization of the cell membrane of the smooth muscle cell and consequently to a reduced calcium influx, resulting in a dilatation of the vessel. Blockade of the vascular KATP channel inhibits the widening of the vessel and thus adjustment of the coronary flow under hypoxic conditions. The test model used for determining the coronary flow was an isolated perfused Langendorff heart of a guinea pig.
Guinea pigs of both sexes were sacrificed by a blow to the head. The heart was quickly removed, and the aorta was canulated. After the canulation, the heart was suspended in the perfusion solution in the Langendorff apparatus, and a latex balloon was inserted into the left ventricle. The coronary flow was recorded using a flow transducer, type E, from Hellige (Freiburg, Germany). The heart was perfused with a constant pressure of 55 mm Hg. Hypoxia was induced by changing the aeration from 95% oxygen/5% carbon dioxide (=normoxia) to 20% oxygen/75% nitrogen/5% carbon dioxide. […]

[1] = test system: guinea pig papillary muscle; experiment: Effect on the action potential duration (APD90) on the guinea pig papillary muscle under hypoxia; settings: test substance 2 μmol/l in bath, 60 minutes after addition; 100% = APD90 under hypoxia before substance, 0% = normoxic APD90
Excerpt: 1) Effect on the Action Potential Duration on the Guinea Pig Papillary Muscle
ATP deficiency states like those observed in the cardiomyocyte during an ischemia lead to a shortening of the action potential duration. They are regarded as one of the causes of so-called reentry arrhythmias, which can cause sudden cardiac death. The opening of ATP-sensitive potassium channels through the lowering of the ATP level is regarded as the cause thereof (ATP=adenosine triphosphate). For measuring the action potential on the guinea pig papillary muscle, a standard microelectrode technique was employed.
Guinea pigs of both sexes were sacrificed by a blow to the head, the heart was removed, and the papillary muscles were dissected out and suspended in an organ bath. The organ bath was rinsed with Ringer's solution (136 mmol/l NaCl, 3.3 mmol/l KCl, 2.5 mmol/l CaCl2, 1.2 mmol/l KH2PO4, 1.1 mmol/l MgSO4, 5.0 mmol/l glucose, 10.0 mmol/l 1-(2-hydroxyethyl)piperazine-4-(2-ethanesulfonic acid) (HEPES), pH adjusted to 7.4 with NaOH) and aerated with 100% oxygen at a temperature of 37° C. The muscle was stimulated via an electrode with square-wave pulses of 1 V and 1 ms duration and a frequency of 1 Hz. The action potential was derived through a glass microelectrode which is inserted intracellularly and filled with 3 mol/l KCl solution, and was recorded. The action potential was amplified using an amplifier from Hugo Sachs (March-Hugstetten, Germany) and stored and evaluated by a computer. The duration of the action potential was determined at a degree of repolarization of 90% (APD90). The shortening of the action potential was induced after an equilibration time of 30 minutes by rinsing the papillary muscle with a hypoxic solution. For this, the glucose was removed, the HEPES buffer replaced by PIPES buffer (piperazine-1,4-bis(2-ethanesulfonic acid)), the pH adjusted to 6.5 and aeration was carried out with 100% nitrogen. This led after a period of 60 minutes to a marked shortening of the APD90. After this time, the test substance was added in the form of a stock solution in propanediol, so that the concentration of the substance in the bath solution was 2 μmol/l. After a further 60 minutes, the re-prolongation of the action potential again recorded. The table below indicates the overall shortening, resulting after hypoxia and addition of test substance, of the APD90 value in percent, i.e. the percentage shortening of the APD90 still remaining after addition of the test substance under hypoxia, where 100% corresponds to the APD90 value under hypoxic conditions before addition of the test substance and 0% corresponds to the APD90 value under normoxic conditions at the start of the experiment.

hSUR1/hKir6.2 = hSUR1/hKir6.2 (Homo sapiens, UniProt Q09428); experiment: Effect on membrane potential of hSUR1/hKir6.2-transfected CHO cells (hypoglycemic effect), DiBAC4 fluorescence, FLIPR; assay type: cell-based; settings: CHO cells activated with diaxozide, averages of at least 4 experiments
Sequence of hSUR1/hKir6.2 (Q09428 whole entry): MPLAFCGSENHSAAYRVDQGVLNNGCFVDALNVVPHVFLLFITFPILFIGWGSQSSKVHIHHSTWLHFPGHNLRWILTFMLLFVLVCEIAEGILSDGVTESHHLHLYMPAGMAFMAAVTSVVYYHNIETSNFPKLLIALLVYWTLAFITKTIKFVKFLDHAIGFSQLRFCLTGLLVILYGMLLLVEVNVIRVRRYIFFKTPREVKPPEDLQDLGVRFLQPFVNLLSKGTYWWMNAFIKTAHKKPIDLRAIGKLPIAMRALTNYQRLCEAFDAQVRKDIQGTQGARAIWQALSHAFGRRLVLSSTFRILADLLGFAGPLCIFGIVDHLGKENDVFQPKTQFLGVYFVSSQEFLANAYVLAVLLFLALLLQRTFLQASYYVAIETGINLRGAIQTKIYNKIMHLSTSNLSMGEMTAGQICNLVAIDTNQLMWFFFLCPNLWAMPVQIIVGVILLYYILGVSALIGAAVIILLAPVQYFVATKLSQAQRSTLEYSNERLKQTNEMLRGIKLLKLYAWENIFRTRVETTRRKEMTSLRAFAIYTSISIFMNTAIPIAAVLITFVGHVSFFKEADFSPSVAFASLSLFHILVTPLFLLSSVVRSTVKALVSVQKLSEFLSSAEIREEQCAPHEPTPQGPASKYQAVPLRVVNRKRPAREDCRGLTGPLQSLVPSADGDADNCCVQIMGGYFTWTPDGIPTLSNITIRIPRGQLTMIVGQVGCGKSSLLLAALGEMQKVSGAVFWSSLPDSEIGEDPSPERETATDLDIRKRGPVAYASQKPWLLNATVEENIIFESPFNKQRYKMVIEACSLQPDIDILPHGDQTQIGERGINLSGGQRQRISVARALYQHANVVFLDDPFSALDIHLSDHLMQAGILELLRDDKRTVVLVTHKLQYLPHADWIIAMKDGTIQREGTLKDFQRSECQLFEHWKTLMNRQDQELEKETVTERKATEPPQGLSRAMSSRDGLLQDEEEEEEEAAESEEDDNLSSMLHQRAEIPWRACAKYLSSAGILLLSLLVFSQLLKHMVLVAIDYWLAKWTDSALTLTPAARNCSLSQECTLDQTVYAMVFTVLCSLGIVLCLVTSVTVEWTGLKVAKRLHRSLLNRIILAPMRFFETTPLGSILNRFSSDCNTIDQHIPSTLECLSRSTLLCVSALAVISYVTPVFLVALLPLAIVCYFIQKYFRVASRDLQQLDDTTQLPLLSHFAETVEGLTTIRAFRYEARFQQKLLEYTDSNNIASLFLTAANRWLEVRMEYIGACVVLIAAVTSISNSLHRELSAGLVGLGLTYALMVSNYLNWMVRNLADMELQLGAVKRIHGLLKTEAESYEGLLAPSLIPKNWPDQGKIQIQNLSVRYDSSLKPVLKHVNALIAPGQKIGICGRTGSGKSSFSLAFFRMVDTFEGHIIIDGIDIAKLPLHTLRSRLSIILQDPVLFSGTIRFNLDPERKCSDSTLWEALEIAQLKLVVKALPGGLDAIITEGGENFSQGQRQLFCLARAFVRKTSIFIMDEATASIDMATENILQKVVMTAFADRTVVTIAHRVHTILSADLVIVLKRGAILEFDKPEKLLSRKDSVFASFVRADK
Sequence of hSUR1/hKir6.2 (Q14654 whole entry partner): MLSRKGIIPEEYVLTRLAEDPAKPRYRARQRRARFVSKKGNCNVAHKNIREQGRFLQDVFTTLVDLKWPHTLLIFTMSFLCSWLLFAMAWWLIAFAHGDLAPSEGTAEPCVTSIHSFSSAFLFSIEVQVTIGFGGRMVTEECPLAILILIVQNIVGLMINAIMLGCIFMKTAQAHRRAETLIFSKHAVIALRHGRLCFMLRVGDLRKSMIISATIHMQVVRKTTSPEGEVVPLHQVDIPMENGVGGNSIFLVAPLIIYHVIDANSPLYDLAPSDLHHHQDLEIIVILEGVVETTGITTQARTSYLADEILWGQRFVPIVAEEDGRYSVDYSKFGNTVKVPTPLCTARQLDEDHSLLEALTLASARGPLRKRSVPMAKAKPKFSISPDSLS
Excerpt: 2) Effect on hSUR1/hKir6.2-Transfected CHO Cells (Hypoglycemic Effect)
The target organ of these compounds is the β cell of the pancreas, where they block ATP-sensitive potassium channels and bring about, through influencing the electric potential of the cell membrane, a release of the blood sugar-lowering hormone insulin. […] The extent of this depolarization of the cell membrane caused by the compounds according to the invention was investigated on CHO cells which were transfected with the cloned components of human pancreatic ATP-sensitive potassium channels, hSUR1 and hKir6.2, and were activated by pretreatment with diaxozide, an opener of ATP-sensitive potassium channels. The strength of action of a compound on the membrane potential of these transfected and activated CHO cells is a measure of the blood sugar-lowering potential of this compound.
On the day of the measurement, the microtiter plates were washed three times with PBS (physiological buffer solution). 90 μl remained in each well at the last washing step. The cells were then loaded with the fluorescent dye DiBAC4 (Molecular Probes, Portland, Oreg., USA) by adding 90 μl of a 10 micromolar solution of DIBAC4 in PBS and 90 μl of a 400-micromolar solution of diaxozide in PBS to each well. After an incubation time of 30 minutes at 37° C., the microtiter plates were then transferred into a Fluorescent Microtiter Plate Reader (FLIPR; Molecular Devices, Sunnyvale, Calif., USA). The cells were excited using an argon laser (Innova 90; Coherent, Santa Clara, Calif., USA) at a wavelength of 488 nm, and the fluorescence emission was measured using a CCD camera. Measurement of the membrane potential began after 4 minutes by adding 20 μl of a solution of the test substance or of the control solution to each well, measuring the resulting fluorescence emission every 20 seconds over a period of 20 minutes. The data listed below are averages of at least 4 experiments.

SMILES | hSUR1/hKir6.2 blockade at 0.1 μM (hSUR1/hKir6.2) [%] | hSUR1/hKir6.2 blockade at 1 μM (hSUR1/hKir6.2) [%] | hSUR1/hKir6.2 blockade at 10 μM (hSUR1/hKir6.2) [%] | melting point [°C] | Hypoxic coronary flow compared with the control in percent (guinea pig heart) [%] | Remaining shortening of the APD90 under hypoxia in percent [1] [%]
COc1ccc(Cl)cc1C(=O)NCCc1ccc(S(=O)(=O)NC(=O)NC2CCCCC2)cc1 [Comparison (1), glibenclamide, reference compound] | – | – | – | – | 35 | –
CNC(=S)NS(=O)(=O)N1CCC(CCNC(=O)c2cc(Cl)ccc2OC)CC1 [Example 1, 5-Chloro-2-methoxy-N-(2-(1-(3-methylthioureidosulfonyl)piperidin-4-yl)ethyl)benzamide] | <1 | 2 | 41 | – | – | 80
CCNC(=S)NS(=O)(=O)N1CCC(CCNC(=O)c2cc(Cl)ccc2OC)CC1 [Example 2, 5-Chloro-2-methoxy-N-(2-(1-(3-ethylthioureidosulfonyl)piperidin-4-yl)ethyl)benzamide] | <1 | 4 | 67 | – | – | 82
CCCNC(=S)NS(=O)(=O)N1CCC(CCNC(=O)c2cc(Cl)ccc2OC)CC1 [Example 3, 5-Chloro-2-methoxy-N-(2-(1-(3-propylthioureidosulfonyl)piperidin-4-yl)ethyl)benzamide] | 5 | 55 | 89 | – | – | 67
COc1ccc(Cl)cc1C(=O)NCCC1CCN(S(=O)(=O)NC(=S)NC(C)C)CC1 [Example 4, 5-Chloro-2-methoxy-N-(2-(1-(3-isopropylthioureidosulfonyl)piperidin-4-yl)ethyl)benzamide] | 2 | 53 | 89 | – | 61 | 54
COc1ccc(Cl)cc1C(=O)NCCC1CCN(S(=O)(=O)NC(=S)NC2CC2)CC1 [Example 5, 5-Chloro-2-methoxy-N-(2-(1-(3-cyclopropylthioureidosulfonyl)piperidin-4-yl)ethyl)benzamide] | – | – | – | 144 to 145 | – | –

Continued, in another order:

hSUR1/hKir6.2 blockade at 0.1 μM (hSUR1/hKir6.2) [%] | hSUR1/hKir6.2 blockade at 1 μM (hSUR1/hKir6.2) [%] | hSUR1/hKir6.2 blockade at 10 μM (hSUR1/hKir6.2) [%] | melting point [°C] | SMILES | Hypoxic coronary flow compared with the control in percent (guinea pig heart) [%] | Remaining shortening of the APD90 under hypoxia in percent [1] [%]
– | – | – | 146 to 148 | COc1ccc(Cl)cc1C(=O)NCCC1CCN(S(=O)(=O)NC(=S)NC2CCCCC2)CC1 [Example 6, 5-Chloro-2-methoxy-N-(2-(1-(3-cyclohexylthioureidosulfonyl)piperidin-4-yl)ethyl)benzamide] | – | –
<1 | 15 | 60 | – | CNC(=O)NS(=O)(=O)N1CCC(CCNC(=O)c2cc(Cl)ccc2OC)CC1 [Example 7, 5-Chloro-2-methoxy-N-(2-(1-(3-methylureidosulfonyl)piperidin-4-yl)ethyl)benzamide] | – | 68
8 | 55 | 102 | – | CCNC(=O)NS(=O)(=O)N1CCC(CCNC(=O)c2cc(Cl)ccc2OC)CC1 [Example 8, 5-Chloro-2-methoxy-N-(2-(1-(3-ethylureidosulfonyl)piperidin-4-yl)ethyl)benzamide] | – | 54
– | – | – | 140 to 142 | CCCNC(=O)NS(=O)(=O)N1CCC(CCNC(=O)c2cc(Cl)ccc2OC)CC1 [Example 9, 5-Chloro-2-methoxy-N-(2-(1-(3-propylureidosulfonyl)piperidin-4-yl)ethyl)benzamide] | – | –
– | – | – | 138 to 139 | COc1ccc(Cl)cc1C(=O)NCCC1CCN(S(=O)(=O)NC(=O)NC2CC2)CC1 [Example 11, 5-Chloro-2-methoxy-N-(2-(1-(3-cyclopropylureidosulfonyl)piperidin-4-yl)ethyl)benzamide] | – | –
